Source: article PMC11678778, “Anti-Inflammatory Properties of Novel 1,2-Benzothiazine Derivatives and Their Interaction with Phospholipid Model Membranes” (Membranes, 2024)

Tests used:
COX-1 = target: T1, COX-1 (Ovis aries, UniProt P05979); experiment: Cyclooxygenase inhibition assay (colorimetric, peroxidase activity, TMPD oxidation); format: biochemical; conditions: incubation 2 min; mean ± SD
T1 construct: purchased
T1 sequence (P05979 25-600): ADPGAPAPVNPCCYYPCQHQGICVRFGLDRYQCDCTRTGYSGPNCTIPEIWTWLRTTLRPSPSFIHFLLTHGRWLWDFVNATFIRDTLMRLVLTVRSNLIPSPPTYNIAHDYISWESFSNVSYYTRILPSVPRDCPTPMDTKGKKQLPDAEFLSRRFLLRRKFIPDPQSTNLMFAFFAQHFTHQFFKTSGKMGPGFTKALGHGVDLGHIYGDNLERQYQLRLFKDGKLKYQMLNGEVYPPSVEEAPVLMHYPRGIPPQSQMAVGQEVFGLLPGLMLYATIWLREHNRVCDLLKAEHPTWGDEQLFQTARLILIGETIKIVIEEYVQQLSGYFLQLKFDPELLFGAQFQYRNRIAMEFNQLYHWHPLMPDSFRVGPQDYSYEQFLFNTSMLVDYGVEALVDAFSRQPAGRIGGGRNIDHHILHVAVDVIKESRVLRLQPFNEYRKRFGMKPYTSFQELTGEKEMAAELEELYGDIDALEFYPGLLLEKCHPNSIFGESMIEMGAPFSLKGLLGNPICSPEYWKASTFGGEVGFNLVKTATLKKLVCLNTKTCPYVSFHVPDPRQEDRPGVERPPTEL
Protocol: (§1) To conduct the cyclooxygenase inhibition assay, we utilized a kit from the manufacturer that contained 150 μL of assay buffer, 10 μL of heme, and 10 μL of either COX-1 or COX-2 enzyme. Each sample was prepared in triplicate, with the addition of 10–500 μM of the test compounds and […] of solvents such as methanol, ethanol, and dimethyl sulfoxide (DMSO). We then added 20 μL of N,N,N cent,N cent-tetramethyl-p-phenylenediamine (TMPD) to each well. Arachidonic acid was introduced to initiate the reaction, which was allowed to proceed for 2 min. Following the incubation period, the extent of TMPD oxidation was measured using the multiscan Go microplate reader at a wavelength of 590 nm (Thermo Fisher Scientific, Waltham, MA, USA).
Cyclooxygenase (COX) peroxidase activity was evaluated using a colorimetric assay. […] The incubation period was maintained at 2 min, following the manufacturer’s guidelines. […] We determined the concentrations of all compounds required for 50% inhibition of COX-1 and COX-2. IC50 values were then calculated, and the ratio of IC50 values for both cyclooxygenase isoforms allowed us to assess the selectivity of the tested structures for COX-1 and COX-2.

COX-2 = target: T2, COX-2 (Homo sapiens, UniProt P35354); experiment: as above; format: biochemical; conditions: for IC50: incubation 2 min, mean ± SD; for Selectivity Ratio: (COX-2/COX-1): ratio of IC50 values
T2 construct: purchased
T2 sequence (P35354 18-604): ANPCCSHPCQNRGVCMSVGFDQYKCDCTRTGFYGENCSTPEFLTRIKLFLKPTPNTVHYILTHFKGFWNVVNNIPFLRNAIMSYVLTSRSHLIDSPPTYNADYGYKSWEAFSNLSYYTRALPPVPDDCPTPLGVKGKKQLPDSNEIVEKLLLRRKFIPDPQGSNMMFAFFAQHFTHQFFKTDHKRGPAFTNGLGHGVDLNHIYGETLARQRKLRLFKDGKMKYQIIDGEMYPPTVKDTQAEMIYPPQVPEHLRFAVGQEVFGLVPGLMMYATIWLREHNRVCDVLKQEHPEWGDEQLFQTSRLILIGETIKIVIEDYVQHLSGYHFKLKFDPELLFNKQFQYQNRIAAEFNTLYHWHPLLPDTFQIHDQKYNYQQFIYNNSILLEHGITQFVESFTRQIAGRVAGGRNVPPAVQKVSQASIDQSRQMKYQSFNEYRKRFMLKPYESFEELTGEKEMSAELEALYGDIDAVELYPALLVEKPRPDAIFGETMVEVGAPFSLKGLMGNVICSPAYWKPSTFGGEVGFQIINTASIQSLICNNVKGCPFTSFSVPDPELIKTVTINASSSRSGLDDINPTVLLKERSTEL
Protocol: as §1
Cyclooxygenase (COX) peroxidase activity was evaluated using a colorimetric assay. […] The incubation period was maintained at 2 min, following the manufacturer’s guidelines. […] IC50 values were then calculated, and the ratio of IC50 values for both cyclooxygenase isoforms allowed us to assess the selectivity of the tested structures for COX-1 and COX-2.

[1] = test system: NHDF (normal human dermal fibroblast) cells; experiment: MTT cytotoxicity assay; format: cell-based; conditions: NHDF cell cultures, 24 h incubation, mean ± SD
Protocol: NHDF (normal human dermal fibroblast) cells, sourced from the American Type Culture Collection (ATCC), were maintained in DMEM without phenol red, enhanced with 10% fetal bovine serum (FBS), 2 mM L-glutamine, and 25 μg/mL gentamicin. The cells were incubated under conditions of 5% CO2, at a temperature of 37 °C, and 95% humidity. We monitored the cells bi-weekly, utilizing or subculturing them once they reached over 70% confluence. For all experimental setups, cells were plated at a density of 10,000 cells per well and allowed to recover in a CO2 incubator for 24 h.
The compounds under investigation were dissolved in DMSO to achieve a final concentration of 10 mM and then stored at −20 °C. Lipopolysaccharide (LPS) from Escherichia coli (Sigma-Aldrich, Saint Louis, MO, USA; catalog no. L2630) was dissolved in distilled water to a concentration of […]. The stock solution of LPS was stored at −20 °C for up to 6 months. Final concentrations of LPS used in this study were 50 µg/mL. Prior to use, the solutions were thawed at room temperature. For each compound, 8 different concentrations in the range of 500–10 μM were prepared in the culture medium.
The cytotoxicity of the test compound was assessed using the MTT assay. After cell seeding and overnight incubation, the supernatant was removed, and the compounds were added at concentrations ranging from 500 to 10 µM. Control cells were treated with complete medium only, while cells treated with medium containing DMSO at the highest compound concentration were included as the solvent control. After the incubation period, the supernatant was removed, and 50 µL of a 1.0 mg/mL MTT solution was added to each well and incubated for 2 h at 37 °C. The medium was then removed, and 100 µL of DMSO was added to each well. Finally, absorbance was measured at 570 nm using a Multiskan GO spectrophotometer.
Cell viability was calculated according to Equation (1): (Ai − Am)/(Ac − Am) × 100(Ai − Am)/(Ac − Am) × 100(1) where Ai is the absorbance of the tested concentration, Am is the absorbance of the medium, and Ac is the absorbance of the control. Based on the cytotoxicity test results, the IC50 was calculated using a 4-point lognormal distribution with a Hill coefficient. Experiments were performed in triplicate.

[2] = ABTS radical scavenging assay; format: physicochemical; conditions: 30 min incubation; mean ± SD, n = 3
Protocol: The activity of ABTS (2,2′-azino-bis(3-ethylbenzothiazoline-6-sulphonic acid)) was assessed to evaluate the radical scavenging potential of the synthesized compounds. The ABTS reagent was generated by combining equal volumes of a 7 mM aqueous solution of ABTS and a 2.45 mM potassium persulfate solution. This mixture was then incubated in the dark at room temperature for 16 h. Following incubation, the solution was diluted with ethanol until the absorbance reached approximately 0.7 ± 0.05 at a wavelength of 734 nm. The stock solutions of the synthesized compounds in DMSO were serially diluted to obtain concentrations ranging from 500 μM to 10 μM in ethanol. The ABTS reagent was then treated with various concentrations of each compound and incubated in the dark at room temperature. After 30 min of incubation, the absorbance was measured at 734 nm, using ethanol as the blank control. Ascorbic acid served as the standard for comparison, and the IC50 values for the synthesized compounds were calculated using the following Equation (3):(3) %ABTS scavenging activity=Abscontrol−Abs sample/Abs (control)×100

[3] = DPPH radical scavenging assay; format: physicochemical; conditions: 30 min incubation, 37 °C; mean ± SD, n = 3
Protocol: The DPPH assay was conducted to assess the radical scavenging capabilities of the synthesized compounds. Stock solutions of the compounds were formulated in DMSO and subsequently diluted serially to achieve test concentrations ranging from 500 to 10 μM in ethanol. Each sample’s ethanolic DPPH solution was treated with the respective test concentrations and incubated at 37 °C. After a 30 min incubation period, the absorbance was measured at 517 nm, using ethanol as the blank control. Ascorbic acid served as the reference standard, and the IC50 values for the synthesized compounds were determined using the following Equation (2):(2) %DPPH scavenging activity=Abscontrol−Abs sample/Abs (control)×100

[4] = test system: NHDF cells exposed to LPS; experiment: Inflammation model, MTT assay after LPS; format: cell-based, human; conditions: LPS 50 µg/mL 24 h, then compound 10, 50, 100 µM 24 h
Protocol: Cells seeded in 96-well plates were treated with 50 ug/mL LPS for 24 h for the MTT assay or 1 h for the DCF-DA assay. […] After this time, MTT and DCF-DA assays were performed according to the procedure described in Wiatrak et al.

IL-6 = experiment: Gene expression by real-time RT-PCR; format: cell-based, human; conditions: inflamed NHDF cells, 10 µM, 24 h
Protocol: (§2) The NHDF cells were treated according to the previously outlined procedure. The control and LPS groups were incubated separately in culture dishes containing DMEM, while the test compounds groups were placed in dishes with 10 µM BS23 and BS28, respectively. After a 24 h incubation at 37 °C in a 5% CO2 atmosphere, the NHDF cells were scraped from the bottom of the microplate using a rubber, and then they were centrifuged at 9000× g for 5 min. The pellet was washed with ice-cold PBS twice. RNA was isolated using a Total RNA Mini Plus kit (A&A Biotechnology, Gdańsk, Poland) followed by DNase I (Thermo Fisher Scientific, Waltham, MA, USA) treatment according to the producer’s instructions. cDNA synthesis was performed using a Fast Gene Scriptase II cDNA (Nippon Genetics Europe, Duren, Germany). RT-qPCR analyses were performed using the DyNAmo Flash SYBR Green qPCR Kit (Thermo Fisher Scientific, Waltham, MA, USA) and the CFX Connect Real-Time PCR Detection System (Bio-Rad, Hercules, CA, USA) . Relative gene expression was normalized to the reference gene, β-actin, using the 2^−ΔΔCT method. The primer sequences utilized in this study were as follows: IL-6: F, 5′-[…]-3′; R, 5′-[…]-3′; TNF-α: F, 5′-[…]-3′; R, 5′-[…]-3′; β-actin: F, 5′-[…]-3′; R, 5′-[…]-3′. All experiments were performed at least three times.

TNF-α = experiment: Gene expression by real-time RT-PCR; format: cell-based, human; conditions: inflamed NHDF cells, 10 µM, 24 h
Protocol: as §2

Row | Compound | IC50 (COX-1) | IC50 (COX-2) | Selectivity Ratio: (COX-2/COX-1) (COX-2) | IC50 [1] | IC50 [2] | IC50 [3] | cell viability after LPS then compound [4] | expression of IL-6 mRNA compared to the LPS group (IL-6) | expression of TNF-α mRNA compared to the LPS group (TNF-α)
1 | COc1ccc(C(=O)C2=C(O)c3ccccc3S(=O)(=O)N2CCCN2CCN(c3ccccn3)CC2)cc1 [BS23] | 242 ± 4.2 µM | 13.2 ± 2.1 µM | 0.05 | 228 ± 28.1 µM | 54.2 ± 2.2 µM | > 500 µM | around 70 % of the value for untreated (control) cells | markedly reduced | markedly reduced
2 | COc1ccc(C(=O)C2=C(O)c3ccccc3S(=O)(=O)N2CCCN2CCN(c3ncccn3)CC2)cc1 [BS24] | 127 ± 3.6 µM | 26.3 ± 3.4 µM | 0.21 | 163 ± 15.7 µM | 63.2 ± 2.8 µM | > 500 µM | – | – | –
3 | Cc1ccc(C(=O)C2=C(O)c3ccccc3S(=O)(=O)N2CCCN2CCN(c3ccccn3)CC2)cc1 [BS25] | 131 ± 7.5 µM | 62.6 ± 1.7 µM | 0.48 | 200 ± 20.9 µM | 75.3 ± 1.4 µM | > 500 µM | – | – | –
4 | O=C(C1=C(O)c2ccccc2S(=O)(=O)N1CCCN1CCN(c2ccccn2)CC1)c1ccc(F)cc1 [BS26] | 129 ± 9.1 µM | 18.2 ± 4.3 µM | 0.14 | 203 ± 22.9 µM | 83.7 ± 3.2 µM | > 500 µM | – | – | –
5 | O=C(C1=C(O)c2ccccc2S(=O)(=O)N1CCCN1CCN(c2ncccn2)CC1)c1ccc(F)cc1 [BS27] | 117 ± 4.3 µM | 25.6 ± 2 µM | 0.22 | 191 ± 12.5 µM | 83.3 ± 2.5 µM | > 500 µM | – | – | –
6 | O=C(C1=C(O)c2ccccc2S(=O)(=O)N1CC(=O)N1CCN(c2ccccc2)CC1)c1ccc(Br)cc1 [BS28, 3-(4-Bromobenzoyl)-2-[2-(4-phenylpiperazin-1-yl)-2-oxoethyl]-4-hydroxy-2H-1,2-benzothiazine 1,1-dioxide] | 95.9 ± 5.7 µM | 12.5 ± 1.9 µM | 0.13 | 180 ± 13.6 µM | 88.4 ± 1.9 µM | > 500 µM | – | markedly reduced | markedly reduced
7 | O=C(C1=C(O)c2ccccc2S(=O)(=O)N1CCCN1CCN(c2ccccn2)CC1)c1ccc(Br)cc1 [BS29] | 125 ± 6.7 µM | 17.8 ± 2.1 µM | 0.14 | 233 ± 11.8 µM | 53.7 ± 1.7 µM | > 500 µM | – | – | –
8 | O=C(C1=C(O)c2ccccc2S(=O)(=O)N1CCCN1CCN(c2ncccn2)CC1)c1ccc(Br)cc1 [BS30] | 122 ± 3.4 µM | 59.2 ± 3.7 µM | 0.49 | 168 ± 30.4 µM | 88.3 ± 1.6 µM | > 500 µM | – | – | –
9 | O=C1O[C@H]([C@@H](O)CO)C(O)=C1O [ascorbic acid, reference compound] | – | – | – | – | 124 ± 2.3 µM | 218.3 ± 1.8 µM | – | – | –
10 | Cc1cnc(NC(=O)C2=C(O)c3ccccc3S(=O)(=O)N2C)s1 [meloxicam, reference compound] | – | – | – | 174 ± 20.3 µM | 89.5 ± 1.5 µM | > 500 µM | – | – | –
